Results reported in patent publication EP0714404B1, “ANTI-INFLAMMATORY PEPTIDES” (CURATIVE TECHNOLOGIES, INC., priority 1993, dated 1995).
Where two headings read alike, the source gives them in different places. Residues, ends and D or L forms follow the SMILES beside them.

What was measured:
[1] = tested on: neutrophils; assay: neutrophil chemotaxis to leukotriene B4 (Neuroprobe chambers); assay type: cell-based; conditions: fluorescence at 530 nm, 1 hr; FIGURE 4
Protocol: The ability of CT-112 (SEQ. ID NO: 1) to inhibit chemotaxis of neutrophils in response to a variety of agents was assessed using Neuroprobe chemotaxis chambers. For these assays, neutrophils were resuspended in Hank's balanced salt solution with Ca^2+ and Mg^2+ to give a 5 x 10^6 cells/ml suspension after the cells were labeled with 1',7'-bis(2-carboxyethyl)-5-(6)-carboxyfluorescein. The neutrophils were exposed to CT-112 (SEQ. ID NO: 1) for approximately 15 min prior to addition to the chemotaxis chambers. CT-112 (SEQ. ID NO: 1) was present in both the top and bottom of the chambers, and the chemoattractant, either f-Met-Leu-Phe, leukotriene B4 or interleukin-8, was added to the bottom of chamber. Cells which had migrated through the membrane were determined by fluorescence at 530 nm at 1 hr after initiation of the assay.

[2] = tested on: prostaglandin E2 (PGE2); assay: carrageenan peritonitis, PGE2 content of peritoneal lavage fluid; assay type: in vivo, Mice; conditions: 60 mg/kg/day; 24 hr post-challenge
Protocol: Mice (C57BL/6UAF, females, 12 weeks old) were implanted with Alzet mini pumps set to deliver 60 mg CT-112/kg/day. Six days post-implantation, the mice were challenged with an intraperitoneal injection of 0.3 ml of carrageenan in PBS (10 mg/ml). The peritoneal cavity was lavaged with 15 ml of Hank's Balanced Salt Solution (Ca^2+- and Mg^2+-free) at 24, 48 and 72 hr post-challenge. The lavage fluid was centrifuged (500 g, 5 min), fixed with LeukoStat fixative and stained with LeukoStat staining solution. The slides were analyzed under a microscope for the different types of inflammatory cells, such as macrophages, lymphocytes and neutrophils. At the 48-hr time point, 5 control mice were also lavaged.
In a separate study, the peritoneal lavage fluid was analyzed for total leukotriene B4 (LTB4) and prostaglandin E2 (PGE2) content at 24 hr post-challenge (Griswold et al., 1991, Biochem. Pharmacol. 42(4):825-831).

[3] = tested on: neutrophils; assay: neutrophil viability, trypan blue exclusion; assay type: cell-based; conditions: FIGURE 3
Text: In addition, CT-112 (SEQ. ID NO: 1) was not cytotoxic to neutrophils, as determined by viability testing using trypan blue exclusion (FIGURE 3).

[4] = tested on: Delayed Type Hypersensitivity; assay type: in vivo, mice
Protocol: CT-112 (SEQ. ID NO: 1) was tested for its ability to modulate the immune response in a mouse model of delayed hypersensitivity (Filipp et al., 1984, Allergy, 39: 499-507; Diezel et al., 1989 J. Invest. Dermatol. 93:322-326). The mice used in this study were 8-wk old hairless females (Jackson Laboratories). The mice were sensitized to a contact allergen (1-chloro-2,4-dinitrobenzene, DNCB) by painting the dorsothoracic region twice daily for 5 consecutive days with 50 µl of 0.5% DNCB in 75% acetone:25% vegetable oil. The animals were allowed to rest for 24 hr prior to challenge with DNCB. On the sixth day after initiation of the sensitization treatments, the animals were challenged with 50 µl of DNCB solution applied to the left ear. After 24 hrs, the ear thickness was determined and compared to the unchallenged ear.
The treatment groups were as follows: • a) PBS control; • b) Prednisone (intraperitoneal injection of 25 mg/kg, 2 hr prior to challenge); • c) 7-day pump (60 mg CT-112/kg/24 hr); • d) CT-112 (intraperitoneal injections of 60 mg/kg/injection at 3, 1, and 0.25 hr prior to challenge and 3, 6 and 21 hr post-challenge); • e) DMSO control (topical application of 50 µl at 3, 1 and 0.25 hr prior to challenge; and • f) CT-112 in DMSO (20 mg/ml, topical application of 50 µl at 3, 1, and 0.25 hr prior to challenge and 3, 6 and 21 hr post-challenge).

In the case of CC(C)[C@H](NC(=O)[C@H](CCC(N)=O)NC(=O)[C@H](CO)NC(=O)[C@@H](NC(=O)[C@@H](N)[C@@H](C)O)[C@@H](C)O)C(=O)N[C@@H](CCCNC(=N)N)C(=O)N1CCC[C@H]1C(=O)N[C@@H](CCCNC(=N)N)C(=O)O [CT-112, Thr-Thr-Ser-Gln-Val-Arg-Pro-Arg] (H-TTSQVRPR-OH), the “chemotactic migration of neutrophils to LTB4” value [1] is reported as “effectively inhibited”, the PGE2 [2] is reported as 13.1 ± 6.9(5) pg in peritoneal lavage and the “cytotoxicity to neutrophils, viability” value [3] is reported as “not cytotoxic”. For the same molecule, the “Thickness Difference (Left-Right)” value ([4]; 7-day pump, 60 mg CT-112/kg/24 hr) was 0.00087 ± 0.000398 in, the “Thickness Difference (Left-Right)” value ([4]; ip 60 mg/kg/injection at 3, 1, 0.25 hr prior and 3, 6, 21 hr post-challenge) was 0.00169 ± 0.000643 in and the “Thickness Difference (Left-Right)” value ([4]; topical, 20 mg/ml in DMSO, 50 µl at 3, 1, 0.25 hr prior and 3, 6, 21 hr post-challenge) was 0.0035 ± 0.000408 in.
